Test system: HIV-1 (strain IIIB)
Test: MT4 Cell Assay (antiviral HIV activity, propidium iodide or MTS readout)
Format: cell-based
Conditions: Human immunodeficiency virus 1, IIIB, expected range for the control and standard, tested in every assay, MT4 cells
Description: Antiviral HIV activity and compound-induced cytotoxicity were measured in parallel by means of a propidium iodide based procedure in the human T-cell lymphotropic virus transformed cell line MT4. Aliquots of the test compounds were serially diluted in medium (RPMI 1640, 10% fetal calf serum (FCS), and gentamycin) in 96-well plates (Costar 3598) using a Cetus Pro/Pette. Exponentially growing MT4 cells were harvested and centrifuged at 1000 rpm for 10 min in a Jouan centrifuge (model CR 4 12). Cell pellets were resuspended in fresh medium (RPMI 1640, 20% FCS, 20% IL-2, and gentamycin) to a density of 5×10^5 cells/ml. Cell aliquots were infected by the addition of HIV-1 (strain IIIB) diluted to give a viral multiplicity of infection of 100× TCID50. […]
A. For propidium iodide readout, 27 μl of 5% Nonidet40 was added to each well of the incubation plate. […] The plates were analyzed in an automated assay instrument (Screen Machine, Idexx Laboratories). […]
B. For MTS readout, 20 μl CellTiter 96 AQ One Solution reagent (Promega #G3582) was added to each well. At 75 minutes following the addition of MTS reagent, absobance was read at 492 nm using a Tecan Sunrise 96-well plate reader. […]
For each assay plate, the results (relative fluorescence units, rfU, or OD values) of wells containing uninfected cells or infected cells with no compound were averaged, respectively. […]

IC50: 40 to 120 nM
SMILES: Cc1cn([C@H]2C[C@H](N=[N+]=[N-])[C@@H](CO)O2)c(=O)[nH]c1=O [3′-azido-3′-deoxythymidine]

Reference: US7812016B2, “Naphthyridine integrase inhibitors” (SmithKline Beecham Corporation, priority 2003, dated 2010)
